CC50, IC50 and GI50 data for eleven compounds are collected here from ChEMBL document CHEMBL5625174, “Are inhibitors of histone deacetylase 8 (HDAC8) effective in hematological cancers especially acute myeloid leukemia (AML) and acute lymphoblastic leukemia (ALL)?” (Eur J Med Chem, 2023).

Some results are limits rather than exact numbers.

The subject of experiment [1] is Jurkat. The experiment is described as follows: Cytotoxicity against human Jurkat cells assessed as reduction in cell viability incubated for 24 hrs by CellTiter-Glo luminescent cell viability assay. Format: functional.
A further experiment deals with Histone deacetylase 1 (Homo sapiens, UniProt Q13547). The experiment is described as follows: Inhibition of HDAC1 (unknown origin) using Ac-Leu-Gly-Lys(Ac)-AMC as substrate pre-incubated for 30 mins followed by substrate addition and measured after 30 mins by fluorescence based analysis.
Chain of Histone deacetylase 1 (Q13547 whole entry): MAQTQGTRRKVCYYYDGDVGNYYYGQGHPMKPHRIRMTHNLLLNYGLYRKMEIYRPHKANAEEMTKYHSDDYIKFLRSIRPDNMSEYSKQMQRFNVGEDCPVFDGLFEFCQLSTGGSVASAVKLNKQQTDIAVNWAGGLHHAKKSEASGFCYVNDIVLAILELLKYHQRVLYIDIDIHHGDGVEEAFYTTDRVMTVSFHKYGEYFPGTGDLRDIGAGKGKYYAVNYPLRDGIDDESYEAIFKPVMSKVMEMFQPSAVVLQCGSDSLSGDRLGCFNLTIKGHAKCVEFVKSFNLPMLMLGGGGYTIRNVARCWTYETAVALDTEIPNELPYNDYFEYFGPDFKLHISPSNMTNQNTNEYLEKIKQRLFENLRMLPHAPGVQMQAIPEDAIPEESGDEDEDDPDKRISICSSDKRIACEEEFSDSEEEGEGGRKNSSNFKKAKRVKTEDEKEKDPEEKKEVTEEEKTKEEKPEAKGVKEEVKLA
The target of the next experiment is Histone deacetylase 2 (Homo sapiens, UniProt Q92769). The experiment can be described thus: Inhibition of HDAC2 (unknown origin) assessed as release of fluorogenic AMC pre-incubated for 15 mins followed by addition of trypsin and substrate measured after 60 mins microplate reader analysis.
Chain of Histone deacetylase 2 (Q92769 whole entry): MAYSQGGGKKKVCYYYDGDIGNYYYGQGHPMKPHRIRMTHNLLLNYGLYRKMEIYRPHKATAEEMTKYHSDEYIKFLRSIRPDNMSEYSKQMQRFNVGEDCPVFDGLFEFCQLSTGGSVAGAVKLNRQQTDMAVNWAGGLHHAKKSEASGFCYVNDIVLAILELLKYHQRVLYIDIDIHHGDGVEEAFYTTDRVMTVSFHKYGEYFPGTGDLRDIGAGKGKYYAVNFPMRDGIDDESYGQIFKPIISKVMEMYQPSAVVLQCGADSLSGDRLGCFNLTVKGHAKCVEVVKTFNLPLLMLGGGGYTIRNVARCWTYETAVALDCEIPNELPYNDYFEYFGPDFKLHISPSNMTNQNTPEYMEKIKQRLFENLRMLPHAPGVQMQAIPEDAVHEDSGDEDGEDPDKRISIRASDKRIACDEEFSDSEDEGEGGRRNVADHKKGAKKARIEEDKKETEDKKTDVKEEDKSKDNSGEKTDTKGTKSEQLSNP
The target in the next experiment is Histone deacetylase 3 (Homo sapiens, UniProt O15379). The experiment is described as follows: Inhibition of HDAC3 (unknown origin) assessed as release of fluorogenic AMC pre-incubated for 15 mins followed by addition of trypsin and substrate measured after 60 mins microplate reader analysis.
Chain of Histone deacetylase 3 (O15379 whole entry): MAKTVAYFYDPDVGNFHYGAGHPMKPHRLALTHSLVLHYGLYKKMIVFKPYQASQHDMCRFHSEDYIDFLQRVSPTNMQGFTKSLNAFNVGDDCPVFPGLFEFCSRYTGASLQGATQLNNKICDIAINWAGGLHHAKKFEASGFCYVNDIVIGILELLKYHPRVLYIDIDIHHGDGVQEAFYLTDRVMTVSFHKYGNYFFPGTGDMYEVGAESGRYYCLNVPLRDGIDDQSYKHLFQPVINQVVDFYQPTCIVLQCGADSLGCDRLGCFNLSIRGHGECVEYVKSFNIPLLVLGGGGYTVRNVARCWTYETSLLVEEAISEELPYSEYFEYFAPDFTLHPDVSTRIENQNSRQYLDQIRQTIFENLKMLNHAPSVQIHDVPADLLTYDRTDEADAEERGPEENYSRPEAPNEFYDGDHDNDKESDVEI
Experiment [2] can be described thus: Inhibition of HDAC6 (unknown origin) assessed as release of fluorogenic AMC pre-incubated for 15 mins followed by addition of trypsin and substrate measured after 60 mins microplate reader analysis. More on the design: species or system Homo sapiens.
The target in experiment [3] is T1, Polyamine deacetylase HDAC10 (Homo sapiens, UniProt Q969S8).
T1 sequence (Q969S8 whole entry): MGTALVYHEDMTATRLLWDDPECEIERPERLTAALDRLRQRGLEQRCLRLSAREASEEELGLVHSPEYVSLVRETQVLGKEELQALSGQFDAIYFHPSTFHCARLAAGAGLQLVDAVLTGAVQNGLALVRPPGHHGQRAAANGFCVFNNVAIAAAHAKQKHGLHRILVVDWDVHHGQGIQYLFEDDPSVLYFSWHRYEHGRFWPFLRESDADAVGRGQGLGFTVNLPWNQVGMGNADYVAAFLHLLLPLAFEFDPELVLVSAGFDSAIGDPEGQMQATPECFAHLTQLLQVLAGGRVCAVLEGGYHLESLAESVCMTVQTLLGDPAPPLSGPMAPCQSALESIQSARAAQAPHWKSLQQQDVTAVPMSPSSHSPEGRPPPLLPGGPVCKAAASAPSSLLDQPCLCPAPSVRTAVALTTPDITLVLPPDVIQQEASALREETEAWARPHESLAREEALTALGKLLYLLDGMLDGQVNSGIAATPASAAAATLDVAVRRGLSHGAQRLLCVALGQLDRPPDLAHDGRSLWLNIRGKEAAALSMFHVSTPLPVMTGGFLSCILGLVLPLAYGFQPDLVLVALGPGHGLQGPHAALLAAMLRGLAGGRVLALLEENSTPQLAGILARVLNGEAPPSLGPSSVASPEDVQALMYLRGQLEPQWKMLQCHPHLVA
The experiment is described as follows: Inhibition of HDAC10 (unknown origin) assessed as release of fluorogenic AMC pre-incubated for 15 mins followed by addition of trypsin and substrate measured after 60 mins microplate reader analysis.

The target of a further experiment is Histone deacetylase. The experiment can be described thus: Inhibition of HDAC (unknown origin) using Fluoro-Substrate Peptide as substrate by fluorescence assay. Format: protein assay, Homo sapiens.
The target in experiment [4] is T2, Histone deacetylase 8 (Homo sapiens, UniProt Q9BY41).
T2 sequence (Q9BY41 whole entry): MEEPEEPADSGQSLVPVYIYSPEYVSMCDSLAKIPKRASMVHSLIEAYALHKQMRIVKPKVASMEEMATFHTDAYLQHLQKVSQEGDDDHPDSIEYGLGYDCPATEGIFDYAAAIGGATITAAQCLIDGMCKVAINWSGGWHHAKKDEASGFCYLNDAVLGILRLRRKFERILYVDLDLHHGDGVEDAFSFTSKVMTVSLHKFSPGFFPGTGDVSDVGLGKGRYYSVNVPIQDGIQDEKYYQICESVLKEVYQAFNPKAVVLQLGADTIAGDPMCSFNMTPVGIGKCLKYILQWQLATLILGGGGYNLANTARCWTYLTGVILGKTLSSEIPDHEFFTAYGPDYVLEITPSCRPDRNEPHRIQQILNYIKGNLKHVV
The experiment is described as follows: Inhibition of HDAC8 (unknown origin) by fluorescence based assay.

Experiment [5] concerns Jurkat E6.1. The experiment is described as follows: Cytotoxicity against human Jurkat E6.1 cells assessed as reduction in cell growth measured after 48 hrs by MTT assay. Conditions: Jurkat E6.1, 48 h. The format is functional, cell-based.
For another experiment, the system named is U-937. The experiment is described as follows: Cytotoxicity against human U-937 cells assessed as reduction in cell viability. The format is functional, cell-based.
For experiment [6], the system named is Jurkat E6.1. The experiment is described as follows: Cytotoxicity against human Jurkat E6.1 cells assessed as reduction in cell viability. Format: functional, cell-based.
Experiment [7] has as its system MOLT-4. The experiment is described as follows: Cytotoxicity against human MOLT-4 cells assessed as reduction in cell viability. The format is functional, cell-based.
Experiment [8] deals with T3, Histone deacetylase 4 (Homo sapiens, UniProt P56524). The experiment is described as follows: Inhibition of HDAC4 (unknown origin) assessed as release of fluorogenic AMC pre-incubated for 15 mins followed by addition of trypsin and substrate measured after 60 mins microplate reader analysis.
T3 sequence (P56524 whole entry): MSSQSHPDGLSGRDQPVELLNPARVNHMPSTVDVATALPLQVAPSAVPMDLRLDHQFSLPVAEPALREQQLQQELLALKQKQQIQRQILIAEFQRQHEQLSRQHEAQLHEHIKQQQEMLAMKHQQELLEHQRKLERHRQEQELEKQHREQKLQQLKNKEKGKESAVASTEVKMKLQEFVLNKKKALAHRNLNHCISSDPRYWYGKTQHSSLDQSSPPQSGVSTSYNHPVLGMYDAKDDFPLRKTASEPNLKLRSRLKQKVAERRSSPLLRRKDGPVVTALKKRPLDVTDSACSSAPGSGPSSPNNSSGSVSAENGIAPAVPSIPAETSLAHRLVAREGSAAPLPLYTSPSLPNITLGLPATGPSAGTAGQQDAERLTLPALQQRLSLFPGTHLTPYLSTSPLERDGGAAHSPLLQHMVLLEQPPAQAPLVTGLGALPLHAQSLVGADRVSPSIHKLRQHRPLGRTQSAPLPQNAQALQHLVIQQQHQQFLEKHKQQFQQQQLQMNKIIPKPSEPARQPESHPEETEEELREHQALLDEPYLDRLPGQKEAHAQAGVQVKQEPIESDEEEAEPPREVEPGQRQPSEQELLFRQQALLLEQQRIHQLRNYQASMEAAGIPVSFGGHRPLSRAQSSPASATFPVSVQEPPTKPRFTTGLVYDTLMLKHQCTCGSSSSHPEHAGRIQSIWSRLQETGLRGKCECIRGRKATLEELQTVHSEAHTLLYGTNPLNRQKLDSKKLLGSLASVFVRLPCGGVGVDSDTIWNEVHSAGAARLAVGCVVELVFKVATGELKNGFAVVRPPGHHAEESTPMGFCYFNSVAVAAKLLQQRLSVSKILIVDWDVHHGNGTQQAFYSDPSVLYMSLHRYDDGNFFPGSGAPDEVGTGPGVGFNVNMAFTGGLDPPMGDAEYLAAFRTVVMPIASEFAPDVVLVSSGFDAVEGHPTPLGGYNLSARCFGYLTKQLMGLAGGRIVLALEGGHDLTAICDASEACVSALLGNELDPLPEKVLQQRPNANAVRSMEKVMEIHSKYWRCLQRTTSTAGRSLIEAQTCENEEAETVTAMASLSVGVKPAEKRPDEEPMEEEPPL
In experiment [9] the target is T2, Histone deacetylase 8. The experiment is described as follows: Inhibition of HDAC8 (unknown origin) assessed as release of fluorogenic AMC pre-incubated for 15 mins followed by addition of trypsin and substrate measured after 60 mins microplate reader analysis.
In experiment [10] the test system is Jurkat. The experiment can be described thus: Cytotoxicity against human Jurkat cells assessed as reduction in cell viability measured after 24 hrs by Celltiter-Glo assay. Format: functional, cell-based.
Experiment [11] addresses T2, Histone deacetylase 8. The experiment is described as follows: Inhibition of HDAC8 (unknown origin).
Experiment [12] has as its target T3, Histone deacetylase 4. The experiment is described as follows: Inhibition of HDAC4 (unknown origin).
For experiment [13], the target named is T1, Polyamine deacetylase HDAC10. The experiment is described as follows: Inhibition of HDAC10 (unknown origin).
Experiment [14] has as its system Jurkat. The experiment can be described thus: cells. The format is functional. Conditions: Homo sapiens.
Description: Growth inhibition of human Jurkat cells
Experiment [15] relates to MOLT-4. The experiment is described as follows: cells. Format: functional. Conditions: Homo sapiens, time 24 hrs.
Description: Growth inhibition of human MOLT-4 cells measured after 24 hrs by MTT assay
The subject of the next experiment is THP-1. The experiment can be described thus: cells. Format: functional. Particulars: Homo sapiens.
Experiment [16] has as its system Jurkat. The experiment can be described thus: Antiproliferative activity against human Jurkat cells assessed as cell growth inhibition measured after 72 hrs by CCK-8 assay. Format: functional.
For the next experiment, the system named is HH. The experiment can be described thus: Antiproliferative activity against human HH cells assessed as cell growth inhibition measured after 72 hrs by CCK-8 assay. Format: functional.
The test system of a further experiment is MT4. The experiment can be described thus: Cytotoxicity against human MT4 cells assessed as inhibition of cell growth incubated for 72 hrs by CCK-8 assay. Format: functional.
Another experiment deals with HuT78. The experiment can be described thus: Anti-proliferative activity against human HuT78 cells assessed as growth inhibition incubated for 72 hrs by alamar blue staining based fluorometric assay. The format is functional.
A further experiment concerns MCF7. The experiment is described as follows: Antiproliferative activity against human MCF7 cells assessed as reduction in cell viability incubated for 24 hrs by MTT assay. Format: functional, cell-based. Particulars: MCF7, 24 h.
The next experiment relates to MDA-MB-231. The experiment can be described thus: Antiproliferative activity against human MDA-MB-231 cells assessed as reduction in cell viability incubated for 24 hrs by MTT assay. Particulars: MDA-MB-231, 24 h. The format is functional, cell-based.
The test system of the next experiment is HeLa. The experiment is described as follows: Growth inhibition of human HeLa cells incubated for 72 hrs by trypan blue assay. The format is functional.
Experiment [17] addresses Macrophage metalloelastase (Homo sapiens, UniProt P39900). The experiment is described as follows: Inhibition of MMP-12 (unknown origin).
Experiment [18] concerns the target T2, Histone deacetylase 8. The experiment can be described thus: Inhibition of HDAC8 (unknown origin) using as Fluor-de-lys substrate by fluorescence based analysis.
The next experiment addresses Neutrophil collagenase (Homo sapiens, UniProt P22894). The experiment can be described thus: Inhibition of MMP-8 (unknown origin).
Experiment [19] concerns the target 72 kDa type IV collagenase (Homo sapiens, UniProt P08253). The experiment can be described thus: Inhibition of MMP-2 (unknown origin).
Experiment [20] concerns the target Matrix metalloproteinase-9 (Homo sapiens, UniProt P14780). The experiment is described as follows: Inhibition of MMP-9 (unknown origin).
Experiment [21] addresses Matrix metalloproteinase-14 (Homo sapiens, UniProt P50281). The experiment is described as follows: Inhibition of MMP-14 (unknown origin).

Chain of Matrix metalloproteinase-9 (P14780 whole entry): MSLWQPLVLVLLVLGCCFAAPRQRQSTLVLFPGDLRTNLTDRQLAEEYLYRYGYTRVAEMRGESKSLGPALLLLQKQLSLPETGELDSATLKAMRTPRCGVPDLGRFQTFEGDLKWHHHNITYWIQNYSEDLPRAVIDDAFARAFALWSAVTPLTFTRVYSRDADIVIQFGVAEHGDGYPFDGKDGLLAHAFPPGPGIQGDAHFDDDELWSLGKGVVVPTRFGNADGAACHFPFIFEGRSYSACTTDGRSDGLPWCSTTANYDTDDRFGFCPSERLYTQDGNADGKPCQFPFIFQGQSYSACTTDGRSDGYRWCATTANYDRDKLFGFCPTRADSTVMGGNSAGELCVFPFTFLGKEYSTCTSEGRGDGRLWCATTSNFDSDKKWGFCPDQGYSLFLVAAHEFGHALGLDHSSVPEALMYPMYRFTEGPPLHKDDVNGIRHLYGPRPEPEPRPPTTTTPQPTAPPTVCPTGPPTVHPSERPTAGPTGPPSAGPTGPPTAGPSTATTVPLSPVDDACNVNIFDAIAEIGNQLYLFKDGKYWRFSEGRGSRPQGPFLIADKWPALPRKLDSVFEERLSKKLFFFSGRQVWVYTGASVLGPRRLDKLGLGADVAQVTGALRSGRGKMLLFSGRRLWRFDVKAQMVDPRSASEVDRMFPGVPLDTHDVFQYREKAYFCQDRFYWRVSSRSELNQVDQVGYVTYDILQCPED
Chain of Neutrophil collagenase (P22894 whole entry): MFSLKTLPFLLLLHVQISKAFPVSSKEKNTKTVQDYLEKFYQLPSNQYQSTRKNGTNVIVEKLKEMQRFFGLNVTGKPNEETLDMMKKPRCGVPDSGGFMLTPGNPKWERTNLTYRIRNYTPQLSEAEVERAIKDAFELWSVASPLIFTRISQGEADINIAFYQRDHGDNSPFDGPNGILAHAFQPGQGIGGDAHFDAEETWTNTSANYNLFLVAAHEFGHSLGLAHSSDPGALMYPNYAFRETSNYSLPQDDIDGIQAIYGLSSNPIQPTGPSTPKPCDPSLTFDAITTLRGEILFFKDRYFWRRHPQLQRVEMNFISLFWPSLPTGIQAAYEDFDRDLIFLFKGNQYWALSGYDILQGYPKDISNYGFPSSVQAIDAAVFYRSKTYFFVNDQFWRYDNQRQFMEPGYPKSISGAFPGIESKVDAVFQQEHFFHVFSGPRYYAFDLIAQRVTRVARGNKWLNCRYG
Chain of 72 kDa type IV collagenase (P08253 whole entry): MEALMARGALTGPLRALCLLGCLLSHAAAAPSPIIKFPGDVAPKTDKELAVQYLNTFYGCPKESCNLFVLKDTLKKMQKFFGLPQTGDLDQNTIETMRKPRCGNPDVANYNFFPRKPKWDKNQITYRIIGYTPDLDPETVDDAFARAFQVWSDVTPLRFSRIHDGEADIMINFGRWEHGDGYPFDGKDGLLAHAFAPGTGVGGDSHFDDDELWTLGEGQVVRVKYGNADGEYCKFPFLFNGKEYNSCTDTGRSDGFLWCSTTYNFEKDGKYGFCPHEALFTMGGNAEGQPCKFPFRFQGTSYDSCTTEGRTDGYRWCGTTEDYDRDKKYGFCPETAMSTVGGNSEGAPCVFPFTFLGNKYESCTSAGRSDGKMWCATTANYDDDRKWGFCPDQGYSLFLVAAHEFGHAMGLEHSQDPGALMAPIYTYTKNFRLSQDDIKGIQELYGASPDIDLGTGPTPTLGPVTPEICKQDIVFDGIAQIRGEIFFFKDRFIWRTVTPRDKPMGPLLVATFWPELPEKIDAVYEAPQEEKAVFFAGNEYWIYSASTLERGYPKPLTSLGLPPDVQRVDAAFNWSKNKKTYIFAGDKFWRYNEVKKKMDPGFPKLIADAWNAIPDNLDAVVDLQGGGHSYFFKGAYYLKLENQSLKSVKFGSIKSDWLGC
Chain of Macrophage metalloelastase (P39900 whole entry): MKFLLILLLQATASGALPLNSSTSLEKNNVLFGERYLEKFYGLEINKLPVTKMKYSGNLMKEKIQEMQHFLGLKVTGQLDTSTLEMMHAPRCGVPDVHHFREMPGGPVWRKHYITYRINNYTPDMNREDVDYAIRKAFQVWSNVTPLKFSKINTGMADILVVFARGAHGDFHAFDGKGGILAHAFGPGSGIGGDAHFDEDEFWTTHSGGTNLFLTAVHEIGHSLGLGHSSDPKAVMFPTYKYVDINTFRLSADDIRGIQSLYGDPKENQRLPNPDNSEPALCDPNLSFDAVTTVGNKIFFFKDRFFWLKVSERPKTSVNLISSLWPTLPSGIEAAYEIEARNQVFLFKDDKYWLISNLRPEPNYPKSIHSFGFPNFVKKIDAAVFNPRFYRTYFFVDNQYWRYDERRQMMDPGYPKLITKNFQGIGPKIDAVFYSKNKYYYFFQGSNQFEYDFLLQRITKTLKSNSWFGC
Description for THP-1: Growth inhibition of human THP-1 cells

In the case of `O=C(/C=C/C#Cc1cccc(NS(=O)(=O)c2ccccc2)c1)NO`, in the experiment on Jurkat [1], the CC50 was 5.9 µM.
Regarding `COc1ccc(/C=C/C(=O)NO)c(-c2ccc(Br)cc2)c1`, the IC50 is 4.5 µM on Histone deacetylase 1; > 20 µM on Histone deacetylase 2; 4.8 µM on Histone deacetylase 3; > 20 µM in [2]; > 20 µM in [3].
On to `O=C(O)CC[C@H](NC(=O)Cc1ccc(Br)cc1)C(=O)NCc1ccc(F)cc1`, for which the IC50 is > 10 µM against Histone deacetylase; ≤ 10 µM at Histone deacetylase 8 [4]; 1.62 µM in the experiment on Jurkat E6.1 [5]; > 35 µM with U-937; < 35 µM with Jurkat E6.1 [6]; > 35 µM with MOLT-4 [7].
For the compound `O=C(NO)[C@@H](Cc1ccccc1)n1nnc(-c2ccccc2)c1C#CC1CC1`, the half-maximal inhibitory concentration (IC50) on Histone deacetylase 1 was 4.3 µM; at Histone deacetylase 2, > 20 µM; on Histone deacetylase 3 it was > 20 µM; at Histone deacetylase 4 [8], > 20 µM; in [2], 1.2 µM; on Histone deacetylase 8 [9], 0.0008 µM. Besides, the concentration for half-maximal inhibition (IC50) in [3] is > 20 µM.
Take `O=C(CCCCCN1C(=O)c2cccc3cccc(c23)C1=O)NO`: the IC50 in the experiment with Jurkat [10] stood at 6.1 µM.
As to `COc1ccc(-c2cccc(-c3cc(OC)c(OC)c(OC)c3)n2)cc1/C=C/C(=O)NO`, it took 0.117 µM to reach half-maximal inhibition against Histone deacetylase 8 [11] (IC50).
Take `O=C(/C=C/c1cccc(S(=O)(=O)Nc2ccccc2)c1)NO` [BELINOSTAT]: the IC50 is 0.015 µM against Histone deacetylase 4 [12] and 0.059 µM in experiment [13]. Further, the GI50 with Jurkat [14] worked out at 0.11 µM; in the experiment with MOLT-4 [15], 0.12 µM; in the experiment on THP-1, 0.075 µM.
Regarding `CCC(=O)CCCCC[C@@H]1NC(=O)[C@H]2CCCCN2C(=O)[C@H]([C@@H](C)CC)NC(=O)[C@H](Cc2cn(OC)c3ccccc23)NC1=O` [APICIDIN], in the experiment with Jurkat [1], the CC50 amounted to 10 µM.
As for `O=C(NO)c1cccc(-c2cn(CSc3ccccc3)nn2)c1`, the half-maximal inhibitory concentration (IC50) in experiment [2] came to 2.4 µM. The GI50 with Jurkat [16] stood at 2.8 µM; in the experiment on HH it was 21 µM; with MT4, 22 µM; with HuT78, 32 µM.
As for `COc1ccc(/C=C/C(=O)NO)c(-c2ccc3c(c2)OCO3)c1`, the IC50 in the experiment on MCF7 came to 7.7 µM; with MDA-MB-231, 9.5 µM. The GI50 in the experiment with HeLa turned out to be 2 µM.
Consider `O=C(O)CC[C@H](NC(=O)Cc1ccc(Br)cc1)C(=O)NCc1ccc([N+](=O)[O-])cc1`, for which the IC50 was 138 µM in experiment [17]; > 10 µM on Histone deacetylase; 2.89 µM against Histone deacetylase 8 [18]; 206 µM against Neutrophil collagenase; 6.4 µM in experiment [19]; 4.83 µM in [20]. Moreover, the IC50 was 56.6 µM in experiment [21]; ≤ 10 µM at Histone deacetylase 8 [4]; ≤ 35 µM in the experiment on U-937; ≤ 35 µM in the experiment on Jurkat E6.1 [6]; ≤ 35 µM in the experiment on MOLT-4 [7].
